The record followed here is patent US6069165A, “Pharmaceutical compositions containing amisulpride and their therapeutic applications” (Synthelabo, priority 1996, dated 2000).

This data set is described as follows: Bioavailability of amisulpride administered by the oral route. To be noted: in vivo, conventional amisulpride, of the order of.

Regarding `CCN1CCCC1CNC(=O)c1cc(S(=O)(=O)CC)c(N)cc1OC` (stereo not shown) [amisulpride, 4-amino-N-[(1-ethylpyrrolidin-2-yl)methyl]-5-(ethylsulphonyl)-2-methoxybenzamide], the bioavailability is 35 to 45%.
